Results taken from ChEMBL document CHEMBL4732064, “Structure-activity relationship studies of phenothiazine derivatives as a new class of ferroptosis inhibitors together with the therapeutic effect in an ischemic stroke model” (Eur J Med Chem, 2021).
Active and inactive are the calls of the source. No cut-off for these calls is given here.

Tests used:
HT-1080 [1] = assay: Downregulation of GPX4 expression in erastin-induced human HT-1080 cell ferroptosis model at 0.01 to 1 uM after 10 hrs by Western blot analysis; format: functional; conditions: dose 0.01-1 µM
Calu-1 [2] = assay: Antioxidant activity in erastin-induced human Calu-1 cell ferroptosis model assessed as decrease in cytosolic ROS accumulation at 0.01 to 1 uM incubated for 8 to 24 hrs by DCFH-DA staining based assay; format: functional; conditions: dose 0.01-1 µM, time 8-24 hrs
HT-1080 [3] = assay: Inhibition of xCT expression in erastin-induced human HT-1080 cell ferroptosis model at 0.01 to 1 uM after 10 hrs by Western blot analysis; format: functional; conditions: dose 0.01-1 µM
Rattus norvegicus [4] = assay: Protective activity in Sprague-Dawley rat model of middle cerebral artery occlusion-induced ischemia-reperfusion injury assessed as decrease in cerebral infarction volume at 5 mg/kg, iv measured after 24 hrs of post reperfusion by TTC staining based assay; format: functional, organism-based
HT-1080 [5] = assay: Antioxidant activity in erastin-induced human HT-1080 cell ferroptosis model assessed as decrease in lipid ROS accumulation at 0.01 to 1 uM incubated for 8 to 24 hrs by BODIPY 581/591 C11 staining based flow cytometric analysis; format: functional; conditions: dose 0.01-1 µM, time 8-24 hrs
Rattus norvegicus [6] = assay: Protective activity in Sprague-Dawley rat model of middle cerebral artery occlusion-induced ischemia-reperfusion injury assessed as prevention of reperfusion injury at 5 mg/kg, iv measured after 24 hrs of post reperfusion by TTC staining based assay; format: functional, organism-based
HT-1080 [7] = assay: Downregulation of GPX4 expression in erastin-induced human HT-1080 cell ferroptosis model at 1 uM after 10 hrs by Western blot analysis; format: functional
[8] = target: Indoleamine 2,3-dioxygenase 1 (Homo sapiens, UniProt P14902); assay: Inhibition of IDO1 (unknown origin)
[9] = target: D(2) dopamine receptor (Homo sapiens) (UniProt P14416); assay: Antagonist activity at DRD2L (unknown origin) by FLIPR assay
HT-1080 [10] = assay: Inhibition of rotenone-induced oxidative cell death in human HT-1080 cells at 10 uM incubated for 24 hrs; format: functional, cell-based
HT-1080 [11] = assay: Inhibition of ERK expression in erastin-induced human HT-1080 cell ferroptosis model at 0.01 to 1 uM after 10 hrs by Western blot analysis; format: functional; conditions: dose 0.01-1 µM
Rattus norvegicus [12] = assay: Protective activity in Sprague-Dawley rat model of middle cerebral artery occlusion-induced ischemia-reperfusion injury assessed as restoration of walking ability at 5 mg/kg, iv measured after 24 hrs of post reperfusion […]; format: functional, organism-based
HT-1080 [13] = assay: Inhibition of LOX expression in erastin-induced human HT-1080 cell ferroptosis model at 0.01 to 1 uM after 10 hrs by Western blot analysis; format: functional; conditions: dose 0.01-1 µM
THP-1 = assay: Protection against nigericin-induced pyroptosis in human THP-1 cells assessed as cell viability at 10 uM; format: functional, cell-based
[14] = target: T1, Alpha-1A adrenergic receptor (Homo sapiens) (UniProt P35348); assay: Antagonist activity at ADRA1A (unknown origin) by FLIPR assay
T1 sequence (whole entry): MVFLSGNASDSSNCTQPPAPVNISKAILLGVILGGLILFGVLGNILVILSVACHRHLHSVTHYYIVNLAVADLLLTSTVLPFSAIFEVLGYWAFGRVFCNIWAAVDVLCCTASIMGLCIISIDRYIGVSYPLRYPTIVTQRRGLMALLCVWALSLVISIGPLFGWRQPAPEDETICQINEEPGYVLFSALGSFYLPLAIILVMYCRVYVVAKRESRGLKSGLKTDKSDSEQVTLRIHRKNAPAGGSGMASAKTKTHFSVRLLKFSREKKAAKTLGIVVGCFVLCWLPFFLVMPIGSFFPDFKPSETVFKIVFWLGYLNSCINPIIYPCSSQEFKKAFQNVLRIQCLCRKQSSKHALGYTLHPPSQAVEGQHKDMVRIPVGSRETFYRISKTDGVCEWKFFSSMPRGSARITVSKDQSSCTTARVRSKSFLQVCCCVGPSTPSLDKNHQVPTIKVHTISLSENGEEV

Rattus norvegicus [15] = assay: Protective activity in Sprague-Dawley rat model of middle cerebral artery occlusion-induced ischemia-reperfusion injury assessed as reduction in neurological score at 5 mg/kg, iv measured after 24 hrs of post reperfusion […]; format: functional, organism-based
Rattus norvegicus [16] = assay: Protective activity in Sprague-Dawley rat model of middle cerebral artery occlusion-induced ischemia-reperfusion injury assessed as reduction in MDA level at 5 mg/kg, iv measured after 24 hrs of post reperfusion […]; format: functional, organism-based
[17] = target: Bifunctional arginine demethylase and lysyl-hydroxylase JMJD6 (Homo sapiens, UniProt Q6NYC1); assay: Inhibition of JMJD6 (unknown origin)
[18] = target: T2, Alpha-1B adrenergic receptor (Homo sapiens) (UniProt P35368); assay: Antagonist activity at ADRA1B (unknown origin) by FLIPR assay
T2 sequence (whole entry): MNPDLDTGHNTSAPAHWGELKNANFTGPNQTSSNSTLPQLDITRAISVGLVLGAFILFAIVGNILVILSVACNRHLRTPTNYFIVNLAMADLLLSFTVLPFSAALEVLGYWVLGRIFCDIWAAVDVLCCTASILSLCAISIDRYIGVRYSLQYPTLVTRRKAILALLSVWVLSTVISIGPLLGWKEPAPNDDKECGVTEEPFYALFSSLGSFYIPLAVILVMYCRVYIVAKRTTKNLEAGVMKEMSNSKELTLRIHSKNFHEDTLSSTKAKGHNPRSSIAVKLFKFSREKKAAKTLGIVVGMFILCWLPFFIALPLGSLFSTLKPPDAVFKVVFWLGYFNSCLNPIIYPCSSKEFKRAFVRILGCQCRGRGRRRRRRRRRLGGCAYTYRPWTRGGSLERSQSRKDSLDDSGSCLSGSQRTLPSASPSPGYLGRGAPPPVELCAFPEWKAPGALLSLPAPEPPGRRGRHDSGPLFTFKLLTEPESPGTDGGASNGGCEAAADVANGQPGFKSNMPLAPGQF

Calu-1 [19] = assay: Inhibition of erastin-induced ferroptosis in human Calu-1 cells assessed as cell viability incubated for 48 hrs by MTT assay; format: functional, cell-based; conditions: Calu-1, 48 h
HT-1080 [20] = assay: Increase in GSH level in erastin-induced human HT-1080 cell ferroptosis model at 0.01 to 1 uM; format: functional; conditions: dose 0.01-1 µM
HT-29 = assay: Protection against TNFalpha/Smac-mimetic/Z-VAD-FMK-induced necroptosis in human HT-29 cells assessed as cell viability at 10 uM; format: functional, cell-based
HT-1080 [21] = assay: Antioxidant activity in erastin-induced human HT-1080 cell ferroptosis model assessed as decrease in cytosolic ROS accumulation at 0.01 to 1 uM incubated for 8 to 24 hrs by DCFH-DA staining based assay; format: functional; conditions: dose 0.01-1 µM, time 8-24 hrs
Rattus norvegicus [22] = assay: Protective activity in Sprague-Dawley rat model of middle cerebral artery occlusion-induced ischemia-reperfusion injury assessed as increase in GSH level at 5 mg/kg, iv measured after 24 hrs of post reperfusion […]; format: functional, organism-based
[23] = target: 5-hydroxytryptamine receptor 2A (Homo sapiens) (UniProt P28223); assay: Antagonist activity at HTR2A (unknown origin) by FLIPR assay
[24] = Antioxidant activity assessed as DPPH radical scavenging activity at 0.05 mM incubated for 10 mins; format: functional

Chain of D(2) dopamine receptor (Homo sapiens) (P14416 whole entry): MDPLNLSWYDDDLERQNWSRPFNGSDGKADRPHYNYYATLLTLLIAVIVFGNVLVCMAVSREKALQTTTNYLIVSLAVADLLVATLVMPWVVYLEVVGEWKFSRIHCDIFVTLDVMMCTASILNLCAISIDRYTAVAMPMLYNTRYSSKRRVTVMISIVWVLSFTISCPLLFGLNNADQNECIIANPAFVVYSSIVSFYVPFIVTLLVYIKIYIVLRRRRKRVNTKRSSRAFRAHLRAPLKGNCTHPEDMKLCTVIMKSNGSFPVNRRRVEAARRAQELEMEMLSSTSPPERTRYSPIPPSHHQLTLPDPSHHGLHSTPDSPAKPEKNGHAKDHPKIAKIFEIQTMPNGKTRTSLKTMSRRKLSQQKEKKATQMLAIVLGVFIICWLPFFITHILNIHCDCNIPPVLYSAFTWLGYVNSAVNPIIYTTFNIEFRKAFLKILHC
Chain of 5-hydroxytryptamine receptor 2A (Homo sapiens) (P28223 whole entry): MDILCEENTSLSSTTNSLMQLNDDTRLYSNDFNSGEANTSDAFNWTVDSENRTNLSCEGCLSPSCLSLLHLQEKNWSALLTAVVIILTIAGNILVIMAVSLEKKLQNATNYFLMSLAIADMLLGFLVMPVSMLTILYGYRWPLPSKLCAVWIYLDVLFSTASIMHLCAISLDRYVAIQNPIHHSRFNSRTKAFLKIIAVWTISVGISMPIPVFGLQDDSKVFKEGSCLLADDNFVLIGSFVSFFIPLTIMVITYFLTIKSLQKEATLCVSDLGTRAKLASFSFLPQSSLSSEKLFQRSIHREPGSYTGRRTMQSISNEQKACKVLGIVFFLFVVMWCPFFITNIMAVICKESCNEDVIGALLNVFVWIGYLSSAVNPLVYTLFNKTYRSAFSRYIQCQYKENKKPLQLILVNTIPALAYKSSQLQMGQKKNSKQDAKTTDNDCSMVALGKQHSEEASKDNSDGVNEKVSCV
Chain of Indoleamine 2,3-dioxygenase 1 (P14902 whole entry): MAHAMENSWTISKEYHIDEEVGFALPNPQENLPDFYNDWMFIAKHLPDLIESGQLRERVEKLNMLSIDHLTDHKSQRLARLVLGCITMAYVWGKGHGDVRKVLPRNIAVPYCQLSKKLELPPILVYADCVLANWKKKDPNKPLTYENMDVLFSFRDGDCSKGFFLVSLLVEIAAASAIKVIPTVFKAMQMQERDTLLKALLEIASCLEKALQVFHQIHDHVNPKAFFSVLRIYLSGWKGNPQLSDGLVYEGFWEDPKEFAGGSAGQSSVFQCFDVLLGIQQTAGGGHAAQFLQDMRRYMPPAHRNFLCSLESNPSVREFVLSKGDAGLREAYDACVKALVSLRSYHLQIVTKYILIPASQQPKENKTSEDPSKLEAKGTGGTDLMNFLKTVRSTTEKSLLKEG

With `CC(c1ccc(N2CCN(C)CC2)cc1)c1ccc2c(c1)Nc1ccccc1S2` (stereo unspecified) the Activity (HT-1080 [1]) was “inactive”, the Activity (Calu-1 [2]) was “Active” and the inhibition (HT-1080 [3]) was “inactive”. For the same compound, the Activity (Rattus norvegicus [4]) was “Active”, the Activity (HT-1080 [5]) was “Active” and the Activity (Rattus norvegicus [6]) was “Active”. For the same compound, the Activity (HT-1080 [7]) was “inactive”, the IC50 [8] was > 10 µM and the Activity [9] was “inactive”. For the same compound, the inhibition (HT-1080 [10]) was “inactive”, the inhibition (HT-1080 [11]) was “inactive” and the Activity (Rattus norvegicus [12]) was “Active”. For the same compound, the inhibition (HT-1080 [13]) was “inactive”, the Activity (THP-1) was “inactive” and the Activity [14] was “inactive”. For the same compound, the Activity (Rattus norvegicus [15]) was “Active”, the Activity (Rattus norvegicus [16]) was “Active” and the IC50 [17] was > 10 µM. The Activity [18] was “inactive”, the EC50 (Calu-1 [19]) was 0.00188 µM and the Activity (HT-1080 [20]) was “Active”. The Activity (HT-29) was “inactive”, the Activity (HT-1080 [21]) was “Active” and the Activity (Rattus norvegicus [22]) was “Active”. The Activity [23] was “inactive” and the Activity [24] was “Active”.
